Experimental findings from PubChem BioAssay AID1259407 (Chemical Carcinogenesis Research Information System (CCRIS), 2018) are described below.

Calls of active or inactive are those of the source. How the calls were made is not given here.

This data set has as its system CCRIS mutagenicity, Ames/micronucleus/aberration tests. As to the kind of experiment: CCRIS mutagenicity studies.
[1] abbreviates: Test System: AMES SALMONELLA TYPHIMURIUM, Strain/Indicator: TA97, Metabolic Activation: NONE, Method: PREINCUBATION
Setting [2] is: Test System: AMES SALMONELLA TYPHIMURIUM, Strain/Indicator: TA98, Metabolic Activation: NONE, Method: PREINCUBATION
Where [3] appears, read: Test System: AMES SALMONELLA TYPHIMURIUM, Strain/Indicator: TA100, Metabolic Activation: NONE, Method: PREINCUBATION
The mark [4] stands for this setting: Test System: AMES SALMONELLA TYPHIMURIUM, Strain/Indicator: TA1535, Metabolic Activation: NONE, Method: PREINCUBATION

For `CCN(Cc1ccccc1)c1ccccc1`, the mutagenic call runs as follows: (Test System: AMES SALMONELLA TYPHIMURIUM, Strain/Indicator: TA97, Metabolic Activation: HAMSTER, LIVER, S-9, AROCLOR 1254 (10 OR 30%), Method: PREINCUBATION) “inactive; negative”; under setting [1], “inactive; negative”; (Test System: AMES SALMONELLA TYPHIMURIUM, Strain/Indicator: TA97, Metabolic Activation: RAT, LIVER, S-9, AROCLOR 1254 (10 OR 30%), Method: PREINCUBATION) “inactive; negative”; (Test System: AMES SALMONELLA TYPHIMURIUM, Strain/Indicator: TA98, Metabolic Activation: HAMSTER, LIVER, S-9, AROCLOR 1254 (10 OR 30%), Method: PREINCUBATION) “inactive; negative”; under setting [2], “inactive; negative”; (Test System: AMES SALMONELLA TYPHIMURIUM, Strain/Indicator: TA98, Metabolic Activation: RAT LIVER S-9, PHENOBARBITAL AND BETA-NAPHTHOFLAVONE, Method: PREINCUBATION) “inactive; negative”. Besides, the mutagenic call is “inactive; negative” (Test System: AMES SALMONELLA TYPHIMURIUM, Strain/Indicator: TA98, Metabolic Activation: RAT, LIVER, S-9, AROCLOR 1254 (10 OR 30%), Method: PREINCUBATION); “inactive; negative” (Test System: AMES SALMONELLA TYPHIMURIUM, Strain/Indicator: TA100, Metabolic Activation: HAMSTER, LIVER, S-9, AROCLOR 1254 (10 OR 30%), Method: PREINCUBATION); “inactive; negative” under setting [3]; “inactive; negative” (Test System: AMES SALMONELLA TYPHIMURIUM, Strain/Indicator: TA100, Metabolic Activation: RAT LIVER S-9, PHENOBARBITAL AND BETA-NAPHTHOFLAVONE, Method: PREINCUBATION); “inactive; negative” (Test System: AMES SALMONELLA TYPHIMURIUM, Strain/Indicator: TA100, Metabolic Activation: RAT, LIVER, S-9, AROCLOR 1254 (10 OR 30%), Method: PREINCUBATION); “inactive; negative” (Test System: AMES SALMONELLA TYPHIMURIUM, Strain/Indicator: TA1535, Metabolic Activation: HAMSTER, LIVER, S-9, AROCLOR 1254 (10 OR 30%), Method: PREINCUBATION). The mutagenic call runs as follows: under setting [4], “inactive; negative”; (Test System: AMES SALMONELLA TYPHIMURIUM, Strain/Indicator: TA1535, Metabolic Activation: RAT LIVER S-9, PHENOBARBITAL AND BETA-NAPHTHOFLAVONE, Method: PREINCUBATION) “inactive; negative”; (Test System: AMES SALMONELLA TYPHIMURIUM, Strain/Indicator: TA1535, Metabolic Activation: RAT, LIVER, S-9, AROCLOR 1254 (10 OR 30%), Method: PREINCUBATION) “inactive; negative”; (Test System: AMES SALMONELLA TYPHIMURIUM, Strain/Indicator: TA1537, Metabolic Activation: NONE, Method: PREINCUBATION) “inactive; negative”; (Test System: AMES SALMONELLA TYPHIMURIUM, Strain/Indicator: TA1537, Metabolic Activation: RAT LIVER S-9, PHENOBARBITAL AND BETA-NAPHTHOFLAVONE, Method: PREINCUBATION) “inactive; negative”; (Test System: AMES SALMONELLA TYPHIMURIUM, Strain/Indicator: TA1538, Metabolic Activation: NONE, Method: PREINCUBATION) “inactive; negative”. In addition, the mutagenic call (Test System: AMES SALMONELLA TYPHIMURIUM, Strain/Indicator: TA1538, Metabolic Activation: RAT LIVER S-9, PHENOBARBITAL AND BETA-NAPHTHOFLAVONE, Method: PREINCUBATION) is “inactive; negative”; the mutagenic call (Test System: E.COLI, Strain/Indicator: WP2UVRA, Metabolic Activation: NONE, Method: PREINCUBATION) was “inactive; negative”; the mutagenic call (Test System: E.COLI, Strain/Indicator: WP2UVRA, Metabolic Activation: RAT LIVER S-9, PHENOBARBITAL AND BETA-NAPHTHOFLAVONE, Method: PREINCUBATION) is “inactive; negative”.

In the case of `Cc1c2ccccc2cc2c3c(ccc12)[C@@H](O)[C@H](O)C=C3`, under “Test System: CHINESE HAMSTER V-79, Strain/Indicator: V-79/8-AZAGUANINE, Metabolic Activation: NONE, Method: STANDARD PLATE”, the mutagenic call is “active; positive”.

Consider `COc1cc(-c2ccc(-[n+]3nc(-c4ccccc4)nn3-c3ccc([N+](=O)[O-])cc3)c(OC)c2)ccc1-[n+]1nc(-c2ccccc2)nn1-c1ccc([N+](=O)[O-])cc1`, for which the mutagenic call was “active; positive” (Test System: AMES SALMONELLA TYPHIMURIUM, Strain/Indicator: TA100, Metabolic Activation: NONE, Method: STANDARD PLATE) and “active; positive” (Test System: AMES SALMONELLA TYPHIMURIUM, Strain/Indicator: TA100, Metabolic Activation: S-9 MIX, Method: STANDARD PLATE).

As for `Nc1ccccc1Cl`, the mutagenic call runs as follows: (Test System: AMES SALMONELLA TYPHIMURIUM, Strain/Indicator: TA97, Metabolic Activation: HAMSTER, LIVER, S-9, AROCLOR 1254 (10%), Method: PREINCUBATION) “inactive; negative”; (Test System: AMES SALMONELLA TYPHIMURIUM, Strain/Indicator: TA97, Metabolic Activation: HAMSTER, LIVER, S-9, AROCLOR 1254 (30%), Method: PREINCUBATION) “inactive; negative”; under setting [1], “inactive; negative”; (Test System: AMES SALMONELLA TYPHIMURIUM, Strain/Indicator: TA97, Metabolic Activation: RAT, LIVER, S-9, AROCLOR 1254 (10%), Method: PREINCUBATION) “inactive; negative”; (Test System: AMES SALMONELLA TYPHIMURIUM, Strain/Indicator: TA97, Metabolic Activation: RAT, LIVER, S-9, AROCLOR 1254 (30%), Method: PREINCUBATION) “inactive; negative”; (Test System: AMES SALMONELLA TYPHIMURIUM, Strain/Indicator: TA98, Metabolic Activation: HAMSTER, LIVER, S-9, AROCLOR 1254 (10%), Method: PREINCUBATION) “inactive; negative”. Also, the mutagenic call (Test System: AMES SALMONELLA TYPHIMURIUM, Strain/Indicator: TA98, Metabolic Activation: HAMSTER, LIVER, S-9, AROCLOR 1254 (30%), Method: PREINCUBATION) is “inactive; negative”; the mutagenic call under setting [2] is “inactive; negative”; the mutagenic call (Test System: AMES SALMONELLA TYPHIMURIUM, Strain/Indicator: TA98, Metabolic Activation: RAT, LIVER, S-9, AROCLOR 1254 (10%), Method: PREINCUBATION) was “inactive; negative”; the mutagenic call (Test System: AMES SALMONELLA TYPHIMURIUM, Strain/Indicator: TA98, Metabolic Activation: RAT, LIVER, S-9, AROCLOR 1254 (30%), Method: PREINCUBATION) is “inactive; negative”; the mutagenic call (Test System: AMES SALMONELLA TYPHIMURIUM, Strain/Indicator: TA100, Metabolic Activation: HAMSTER, LIVER, S-9, AROCLOR 1254 (10%), Method: PREINCUBATION) is “inactive; negative”; the mutagenic call (Test System: AMES SALMONELLA TYPHIMURIUM, Strain/Indicator: TA100, Metabolic Activation: HAMSTER, LIVER, S-9, AROCLOR 1254 (30%), Method: PREINCUBATION) is “inactive; negative”. Besides, the mutagenic call is “inactive; negative” under setting [3]; “inactive; negative” (Test System: AMES SALMONELLA TYPHIMURIUM, Strain/Indicator: TA100, Metabolic Activation: RAT, LIVER, S-9, AROCLOR 1254 (10%), Method: PREINCUBATION); “inactive; negative” (Test System: AMES SALMONELLA TYPHIMURIUM, Strain/Indicator: TA100, Metabolic Activation: RAT, LIVER, S-9, AROCLOR 1254 (30%), Method: PREINCUBATION); “inactive; negative” (Test System: AMES SALMONELLA TYPHIMURIUM, Strain/Indicator: TA1535, Metabolic Activation: HAMSTER, LIVER, S-9, AROCLOR 1254 (10%), Method: PREINCUBATION); “inactive; negative” (Test System: AMES SALMONELLA TYPHIMURIUM, Strain/Indicator: TA1535, Metabolic Activation: HAMSTER, LIVER, S-9, AROCLOR 1254 (30%), Method: PREINCUBATION); “inactive; negative” under setting [4]. The mutagenic call (Test System: AMES SALMONELLA TYPHIMURIUM, Strain/Indicator: TA1535, Metabolic Activation: RAT, LIVER, S-9, AROCLOR 1254 (10%), Method: PREINCUBATION) was “inactive; negative”; the mutagenic call (Test System: AMES SALMONELLA TYPHIMURIUM, Strain/Indicator: TA1535, Metabolic Activation: RAT, LIVER, S-9, AROCLOR 1254 (30%), Method: PREINCUBATION) was “inactive; negative”; the mutagenic call (Test System: CHINESE HAMSTER V-79, Strain/Indicator: V-79/8-AZAGUANINE, Metabolic Activation: NONE, Method: SUSPENSION/PLATE) was “active; positive”; the mutagenic call (Test System: CHINESE HAMSTER V-79, Strain/Indicator: V-79/OUABAIN, Metabolic Activation: NONE, Method: SUSPENSION/PLATE) is “inactive; negative”; the mutagenic call (Test System: MOUSE LYMPHOMA, Strain/Indicator: L5178Y (TK+/TK-), Metabolic Activation: NONE, Method: SUSPENSION/PLATE) was “inactive; negative”; the mutagenic call (Test System: MOUSE LYMPHOMA, Strain/Indicator: L5178Y (TK+/TK-), Metabolic Activation: RAT, LIVER, S-9, AROCLOR 1254, Method: SUSPENSION/PLATE) is “active; positive”. In addition, the mutagenic call (Test System: UDS RODENT HEPATOCYTES, Strain/Indicator: THY INCORP (NON-S-PHASE), Metabolic Activation: NONE, Method: AUTORADIOGRAPHY) was “inactive; negative”.
